Measurements: patent US20260356819A1, “OXOISOINDOLINYL-SUBSTITUTED […] DERIVATIVE AND USE THEREOF” (GLUETACS THERAPEUTICS (SHANGHAI) CO., LTD., priority 2023, published 2026)

Legend:
Type in all cases: cell-based
Settings in all cases: compounds at 50 nM and 500 nM
IKZF1 = molecular target: T1, IKZF1 (Homo sapiens, UniProt Q13422+Q96SW2); experiment: Western blot degradation of IKZF1 in hPBMCs (24 h)
T1 construct: The supernatant was aspirated as the extracted total cell protein; endogenous in cells; host or cells: human peripheral blood mononuclear cells (hPBMCs)
Procedure: (§1) Conventional Western blot assay was performed to evaluate the effects of the compounds of the present disclosure on the expression of target proteins in cells. • (1) Cell Seeding and Protein Harvesting: Human peripheral blood mononuclear cells (hPBMCs) at a density of 1×10^6 cells/mL were thawed according to the PBMC Recovery Protocol (Milecell Biotechnologies Inc, Shanghai). The cells were then treated with the compounds of the present disclosure (including the compounds listed in Table 1, and the Examples 1-498 compounds) at concentrations of 50 nM and 500 nM. Controls included a negative control (DMSO) and a positive control (the commercial immunomodulatory drug lenalidomide), both processed following the identical experimental protocol as the compounds of the present disclosure. After 24 hours of compounds treatment, cells were harvested and lysed in RIPA protein lysate containing protease inhibitors on ice for 30 min, followed by centrifugation. The supernatant was aspirated as the extracted total cell protein. The protein concentration of the supernatant was determined using the conventional BCA (Bicinchoninic Acid) assay. • (2) To the collected supernatant, 5×SDS sample loading buffer was added, followed by denaturation at 95 °C for 5 minutes. The denatured samples were then separated by SDS-PAGE electrophoresis on a polyacrylamide gel. Proteins were transferred to a nitrocellulose membrane (0.45 μm NC membrane), blocked with blocking buffer at room temperature for 1 hour, and subjected to antibody incubation and development procedures according to the antibody manufacturer's instructions (Cell Signaling Technology).
(§2) Half-Maximal Degradation Concentration value (the drug concentration required for degrading proteins by 50%, abbreviated as DC50) reads method: comparing the grayscale values of Western blot bands from drug-treated samples with those from blank DMSO-treated controls, and identifying the drug concentration range at which the grayscale value is half that of the DMSO-treated control bands.
(§3) DC50 values can be calculated using ImageJ software to measure grayscale values of Western blot bands from drug-treated samples. The concentration-response curve is fitted to estimate the drug concentration corresponding to half the grayscale value.
(§4) Target protein remaining (%) refers to the percentage of target protein remaining in cells after treatment with protein degrader compounds.
(§5) Calculation method for target protein remaining (%): Use ImageJ software to measure grayscale values of Western blot bands from drug (protein degrader)-treated samples. The grayscale value of drug-treated bands is divided by that of internal control protein bands, and the resulting quotient is normalized to obtain the relative percentage of remaining target protein after protein degrader treatment.
(§6) Target protein degradation rate (%)=1−target protein remaining (%).

IKZF2 = molecular target: T2, IKZF2 (Homo sapiens, UniProt Q96SW2+Q9UKS7); experiment: Western blot degradation of IKZF2 in hPBMCs (24 h)
T2 construct: The supernatant was aspirated as the extracted total cell protein; endogenous in cells; host or cells: human peripheral blood mononuclear cells (hPBMCs)
T2 sequence (Q9UKS7 whole entry): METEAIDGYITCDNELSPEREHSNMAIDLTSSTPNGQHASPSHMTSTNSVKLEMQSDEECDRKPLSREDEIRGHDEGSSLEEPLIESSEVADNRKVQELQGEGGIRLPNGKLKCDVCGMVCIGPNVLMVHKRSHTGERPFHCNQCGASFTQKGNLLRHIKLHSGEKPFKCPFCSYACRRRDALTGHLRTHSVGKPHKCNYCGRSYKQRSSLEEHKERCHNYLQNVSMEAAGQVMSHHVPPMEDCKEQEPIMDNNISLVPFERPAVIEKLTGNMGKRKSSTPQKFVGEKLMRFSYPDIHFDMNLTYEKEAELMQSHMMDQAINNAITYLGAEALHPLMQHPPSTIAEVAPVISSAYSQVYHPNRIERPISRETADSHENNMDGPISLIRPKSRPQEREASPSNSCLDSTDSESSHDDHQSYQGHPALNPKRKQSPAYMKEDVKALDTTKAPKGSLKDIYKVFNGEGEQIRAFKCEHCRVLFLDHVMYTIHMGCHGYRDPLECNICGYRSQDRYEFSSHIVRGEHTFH
T2 sequence (Q96SW2 whole entry): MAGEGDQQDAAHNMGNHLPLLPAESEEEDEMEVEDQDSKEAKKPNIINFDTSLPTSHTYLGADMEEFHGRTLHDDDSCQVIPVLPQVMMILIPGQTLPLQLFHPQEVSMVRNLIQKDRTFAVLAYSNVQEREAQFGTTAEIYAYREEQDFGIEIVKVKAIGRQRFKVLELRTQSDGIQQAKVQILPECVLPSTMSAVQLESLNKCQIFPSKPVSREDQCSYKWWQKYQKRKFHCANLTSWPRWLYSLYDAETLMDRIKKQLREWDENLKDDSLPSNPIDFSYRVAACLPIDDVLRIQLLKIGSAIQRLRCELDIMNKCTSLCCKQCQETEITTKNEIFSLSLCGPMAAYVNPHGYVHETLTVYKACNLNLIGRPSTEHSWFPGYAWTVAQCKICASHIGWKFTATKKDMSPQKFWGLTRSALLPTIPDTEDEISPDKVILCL
T2 sequence (Q16531 whole entry partner): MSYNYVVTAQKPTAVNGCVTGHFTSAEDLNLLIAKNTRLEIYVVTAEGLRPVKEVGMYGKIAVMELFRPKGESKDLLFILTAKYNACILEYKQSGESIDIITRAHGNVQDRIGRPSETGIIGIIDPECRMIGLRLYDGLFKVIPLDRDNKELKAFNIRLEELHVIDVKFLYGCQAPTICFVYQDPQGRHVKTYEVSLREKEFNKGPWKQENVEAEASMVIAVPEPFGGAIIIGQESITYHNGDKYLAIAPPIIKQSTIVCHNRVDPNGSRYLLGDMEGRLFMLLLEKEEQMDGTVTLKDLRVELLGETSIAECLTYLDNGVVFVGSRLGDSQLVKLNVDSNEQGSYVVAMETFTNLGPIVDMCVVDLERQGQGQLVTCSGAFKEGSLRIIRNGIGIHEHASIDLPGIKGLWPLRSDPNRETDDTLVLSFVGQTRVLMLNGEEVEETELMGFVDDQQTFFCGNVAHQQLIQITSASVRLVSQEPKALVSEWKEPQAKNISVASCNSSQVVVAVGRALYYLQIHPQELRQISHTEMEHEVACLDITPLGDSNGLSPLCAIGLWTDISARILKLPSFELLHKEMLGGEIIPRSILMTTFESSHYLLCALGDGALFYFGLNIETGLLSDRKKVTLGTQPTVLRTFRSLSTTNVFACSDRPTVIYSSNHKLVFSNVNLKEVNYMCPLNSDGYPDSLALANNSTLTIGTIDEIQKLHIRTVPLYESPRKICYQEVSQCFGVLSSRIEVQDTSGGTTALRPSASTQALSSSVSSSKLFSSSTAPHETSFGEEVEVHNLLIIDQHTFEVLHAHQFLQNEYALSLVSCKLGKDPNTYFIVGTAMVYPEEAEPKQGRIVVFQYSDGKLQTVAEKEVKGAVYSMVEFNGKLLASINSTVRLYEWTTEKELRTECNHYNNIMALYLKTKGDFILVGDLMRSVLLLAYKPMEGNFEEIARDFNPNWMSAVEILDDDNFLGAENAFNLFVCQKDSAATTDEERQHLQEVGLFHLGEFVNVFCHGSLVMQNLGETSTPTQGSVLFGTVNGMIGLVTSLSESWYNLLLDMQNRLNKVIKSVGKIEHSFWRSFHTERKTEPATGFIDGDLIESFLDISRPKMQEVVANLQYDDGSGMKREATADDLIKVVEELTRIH
Procedure: as §1, §2, §3, §4, §5, §6

GSPT1 = molecular target: T3, GSPT1 (Homo sapiens, UniProt P15170+Q96SW2); experiment: Western blot degradation of GSPT1 in hPBMCs (24 h)
T3 construct: The supernatant was aspirated as the extracted total cell protein; endogenous in cells; host or cells: human peripheral blood mononuclear cells (hPBMCs)
T3 sequence (P15170 whole entry): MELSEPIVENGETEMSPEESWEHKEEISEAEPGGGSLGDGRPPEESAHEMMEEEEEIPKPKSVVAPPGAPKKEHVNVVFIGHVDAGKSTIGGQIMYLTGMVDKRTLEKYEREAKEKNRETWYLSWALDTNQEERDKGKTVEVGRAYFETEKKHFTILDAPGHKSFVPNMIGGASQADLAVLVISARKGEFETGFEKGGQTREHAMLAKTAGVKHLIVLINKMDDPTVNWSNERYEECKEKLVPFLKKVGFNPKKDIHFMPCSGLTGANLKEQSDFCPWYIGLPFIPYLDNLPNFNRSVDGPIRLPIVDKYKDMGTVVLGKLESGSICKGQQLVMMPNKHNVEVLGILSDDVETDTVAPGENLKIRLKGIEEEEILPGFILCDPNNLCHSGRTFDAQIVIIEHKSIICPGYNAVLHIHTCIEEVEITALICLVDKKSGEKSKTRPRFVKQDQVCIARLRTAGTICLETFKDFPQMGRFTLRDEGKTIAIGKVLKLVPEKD
T3 sequence (Q96SW2 whole entry): as the sequence (Q96SW2 whole entry) above
T3 sequence (Q16531 whole entry partner): as the sequence (Q16531 whole entry partner) above
Procedure: as §1, §2, §3, §4, §5, §6

CK1α = molecular target: T4, CK1α (Homo sapiens, UniProt P48729+Q96SW2); experiment: Western blot degradation of CK1α in hPBMCs (24 h)
T4 construct: The supernatant was aspirated as the extracted total cell protein; endogenous in cells; host or cells: human peripheral blood mononuclear cells (hPBMCs)
T4 sequence (P48729 whole entry): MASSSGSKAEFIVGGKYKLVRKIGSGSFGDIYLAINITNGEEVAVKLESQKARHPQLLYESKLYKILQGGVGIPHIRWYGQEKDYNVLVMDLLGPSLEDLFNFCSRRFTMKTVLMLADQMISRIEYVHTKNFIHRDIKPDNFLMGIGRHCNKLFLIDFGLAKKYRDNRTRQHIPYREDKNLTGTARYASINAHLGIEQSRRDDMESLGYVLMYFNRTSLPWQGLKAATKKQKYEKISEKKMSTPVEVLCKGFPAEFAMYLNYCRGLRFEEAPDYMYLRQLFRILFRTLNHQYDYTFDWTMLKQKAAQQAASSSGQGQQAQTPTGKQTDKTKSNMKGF
T4 sequence (Q96SW2 whole entry): as the sequence (Q96SW2 whole entry) above
T4 sequence (Q16531 whole entry partner): as the sequence (Q16531 whole entry partner) above
Procedure: as §1, §2, §3, §4, §5, §6

WEE1 = molecular target: T5, WEE1 (Homo sapiens, UniProt P30291+Q96SW2); experiment: Western blot degradation of WEE1 in hPBMCs (24 h)
T5 construct: The supernatant was aspirated as the extracted total cell protein; endogenous in cells; host or cells: human peripheral blood mononuclear cells (hPBMCs)
T5 sequence (P30291 whole entry): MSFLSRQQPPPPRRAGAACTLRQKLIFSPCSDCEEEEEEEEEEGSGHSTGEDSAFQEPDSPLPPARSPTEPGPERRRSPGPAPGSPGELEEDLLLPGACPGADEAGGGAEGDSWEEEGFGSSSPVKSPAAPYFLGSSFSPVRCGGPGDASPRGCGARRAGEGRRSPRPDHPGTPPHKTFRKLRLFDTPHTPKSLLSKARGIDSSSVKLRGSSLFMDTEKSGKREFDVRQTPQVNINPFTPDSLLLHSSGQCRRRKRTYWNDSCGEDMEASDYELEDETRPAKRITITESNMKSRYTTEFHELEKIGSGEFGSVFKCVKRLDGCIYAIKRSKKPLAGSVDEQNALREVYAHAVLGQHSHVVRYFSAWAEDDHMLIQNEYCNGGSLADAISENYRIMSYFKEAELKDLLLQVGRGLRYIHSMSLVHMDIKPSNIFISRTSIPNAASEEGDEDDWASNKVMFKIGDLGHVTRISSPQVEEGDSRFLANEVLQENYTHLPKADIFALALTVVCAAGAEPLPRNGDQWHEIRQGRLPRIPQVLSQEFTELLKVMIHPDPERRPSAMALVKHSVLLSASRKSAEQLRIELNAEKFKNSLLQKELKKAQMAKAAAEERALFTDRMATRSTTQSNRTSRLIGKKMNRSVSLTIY
T5 sequence (Q96SW2 whole entry): as the sequence (Q96SW2 whole entry) above
T5 sequence (Q16531 whole entry partner): as the sequence (Q16531 whole entry partner) above
Procedure: as §1, §2, §3, §4, §5, §6

IKZF3 = molecular target: T6, IKZF3 (Homo sapiens, UniProt Q96SW2+Q9UKT9); experiment: Western blot degradation of IKZF3 in hPBMCs (24 h)
T6 construct: The supernatant was aspirated as the extracted total cell protein; endogenous in cells; host or cells: human peripheral blood mononuclear cells (hPBMCs)
T6 sequence (Q9UKT9 whole entry): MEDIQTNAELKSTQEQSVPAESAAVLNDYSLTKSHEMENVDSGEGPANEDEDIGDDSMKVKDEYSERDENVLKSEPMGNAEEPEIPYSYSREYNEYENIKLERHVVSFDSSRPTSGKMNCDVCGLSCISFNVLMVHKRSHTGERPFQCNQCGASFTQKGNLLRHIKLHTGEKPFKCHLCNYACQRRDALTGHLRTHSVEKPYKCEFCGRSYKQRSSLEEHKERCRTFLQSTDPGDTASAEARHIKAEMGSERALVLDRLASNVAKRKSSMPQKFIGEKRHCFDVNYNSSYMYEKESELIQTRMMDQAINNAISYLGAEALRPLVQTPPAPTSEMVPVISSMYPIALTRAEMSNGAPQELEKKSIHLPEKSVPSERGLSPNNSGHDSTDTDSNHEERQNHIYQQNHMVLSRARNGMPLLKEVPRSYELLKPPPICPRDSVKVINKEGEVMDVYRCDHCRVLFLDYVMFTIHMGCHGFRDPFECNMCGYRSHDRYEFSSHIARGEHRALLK
T6 sequence (Q96SW2 whole entry): as the sequence (Q96SW2 whole entry) above
T6 sequence (Q16531 whole entry partner): as the sequence (Q16531 whole entry partner) above
Procedure: as §1, §2, §3, §4, §5, §6

Structure (SMILES)	IKZF1 substrate protein remaining % (IKZF1)	IKZF2 substrate protein remaining % (IKZF2)	GSPT1 substrate protein remaining % (GSPT1)	CK1α substrate protein remaining % (CK1α)	WEE1 substrate protein remaining % (WEE1)	IKZF3 substrate protein remaining % (IKZF3)
Cc1cccc(N2CCN(Cc3ccc4c(c3)CN(N3CCC(=O)NC3=O)C4=O)CC2)n1 [GT-05125, 1-(5-((4-(6-methylpyridin-2-yl)piperazin-1-yl)methyl)-1-oxoisoindolin-2-yl)dihydropyrimidine-2,4(1H,3H)-dione]	A (0% ≤ substrate protein remaining % ≤80%)	B (80%< substrate protein remaining % ≤100%)	A (0% ≤ substrate protein remaining % ≤80%)	A (0% ≤ substrate protein remaining % ≤80%)	A (0% ≤ substrate protein remaining % ≤80%)	A (0% ≤ substrate protein remaining % ≤80%)
O=C1CCN(N2Cc3cc(CN4CCN(c5cc(Cl)ccn5)CC4)ccc3C2=O)C(=O)N1 [GT-05128, 1-(5-((4-(4-chloropyridin-2-yl)piperazin-1-yl)methyl)-1-oxoisoindolin-2-yl)dihydropyrimidine-2,4(1H,3H)-dione]	A (0% ≤ substrate protein remaining % ≤80%)	A (0% ≤ substrate protein remaining % ≤80%)	A (0% ≤ substrate protein remaining % ≤80%)	A (0% ≤ substrate protein remaining % ≤80%)	A (0% ≤ substrate protein remaining % ≤80%)	A (0% ≤ substrate protein remaining % ≤80%)
O=C1CCN(N2Cc3cc(CN4CCN(c5ncccc5F)CC4)ccc3C2=O)C(=O)N1 [GT-05129, 1-(5-((4-(3-fluoropyridin-2-yl)piperazin-1-yl)methyl)-1-oxoisoindolin-2-yl)dihydropyrimidine-2,4(1H,3H)-dione]	A (0% ≤ substrate protein remaining % ≤80%)	A (0% ≤ substrate protein remaining % ≤80%)	A (0% ≤ substrate protein remaining % ≤80%)	A (0% ≤ substrate protein remaining % ≤80%)	A (0% ≤ substrate protein remaining % ≤80%)	A (0% ≤ substrate protein remaining % ≤80%)
O=C1CCN(N2Cc3cc(CN4CCN(c5cccc(F)n5)CC4)ccc3C2=O)C(=O)N1 [GT-05130, 1-(5-((4-(6-fluoropyridin-2-yl)piperazin-1-yl)methyl)-1-oxoisoindolin-2-yl)dihydropyrimidine-2,4(1H,3H)-dione]	A (0% ≤ substrate protein remaining % ≤80%)	A (0% ≤ substrate protein remaining % ≤80%)	A (0% ≤ substrate protein remaining % ≤80%)	A (0% ≤ substrate protein remaining % ≤80%)	A (0% ≤ substrate protein remaining % ≤80%)	A (0% ≤ substrate protein remaining % ≤80%)
O=C1CCN(N2Cc3cc(CN4CCN(c5ccc(F)cn5)CC4)ccc3C2=O)C(=O)N1 [GT-05131, 1-(5-((4-(5-fluoropyridin-2-yl)piperazin-1-yl)methyl)-1-oxoisoindolin-2-yl)dihydropyrimidine-2,4(1H,3H)-dione]	A (0% ≤ substrate protein remaining % ≤80%)	A (0% ≤ substrate protein remaining % ≤80%)	A (0% ≤ substrate protein remaining % ≤80%)	A (0% ≤ substrate protein remaining % ≤80%)	A (0% ≤ substrate protein remaining % ≤80%)	A (0% ≤ substrate protein remaining % ≤80%)
O=C1CCN(N2Cc3cc(CN4C5CC4CN(c4cccc(Cl)c4Cl)C5)ccc3C2=O)C(=O)N1 [GT-05162, 1-(5-((3-(2,3-dichlorophenyl)-3,6-diazabicyclo[3.1.1]heptan-6-yl)methyl)-1-oxoisoindolin-2-yl)dihydropyrimidine-2,4(1H,3H)-dione]	B (80%< substrate protein remaining % ≤100%)	B (80%< substrate protein remaining % ≤100%)	A (0% ≤ substrate protein remaining % ≤80%)	B (80%< substrate protein remaining % ≤100%)	B (80%< substrate protein remaining % ≤100%)	A (0% ≤ substrate protein remaining % ≤80%)
O=C1CCN(N2C(=O)c3ccc(CN4CCC(N(c5ccccc5)c5ccccc5)CC4)cc3C2=O)C(=O)N1 [GT-05177, 2-(2,4-dioxotetrahydropyrimidin-1(2H)-yl)-5-((4-(diphenylamino)piperidin-1-yl)methyl)isoindoline-1,3-dione]	B (80%< substrate protein remaining % ≤100%)	B (80%< substrate protein remaining % ≤100%)	A (0% ≤ substrate protein remaining % ≤80%)	B (80%< substrate protein remaining % ≤100%)	B (80%< substrate protein remaining % ≤100%)	B (80%< substrate protein remaining % ≤100%)
O=C1CCN(N2C(=O)c3ccc(CN4CCC(Nc5ccccc5-c5ccc(Cl)cc5)CC4)cc3C2=O)C(=O)N1 [GT-05179, 5-((4-((4′-chloro-[1,1′-biphenyl]-2-yl)amino)piperidin-1-yl)methyl)-2-(2,4-dioxotetrahydropyrimidin-1(2H)-yl)isoindoline-1,3-dione]	B (80%< substrate protein remaining % ≤100%)	B (80%< substrate protein remaining % ≤100%)	B (80%< substrate protein remaining % ≤100%)	B (80%< substrate protein remaining % ≤100%)	A (0% ≤ substrate protein remaining % ≤80%)	B (80%< substrate protein remaining % ≤100%)
CC1(C)CCC(CN2CCN(Cc3ccc4c(c3)C(=O)N(N3CCC(=O)NC3=O)C4=O)CC2)=C(c2ccc(Cl)cc2)C1 [GT-05180, 5-((4-((4′-chloro-5,5-dimethyl-3,4,5,6-tetrahydro-[1,1′-biphenyl]-2-yl)methyl)piperazin-1-yl)methyl)-2-(2,4-dioxotetrahydropyrimidin-1(2H)-yl)isoindoline-1,3-dione]	B (80%< substrate protein remaining % ≤100%)	B (80%< substrate protein remaining % ≤100%)	B (80%< substrate protein remaining % ≤100%)	B (80%< substrate protein remaining % ≤100%)	A (0% ≤ substrate protein remaining % ≤80%)	B (80%< substrate protein remaining % ≤100%)
O=C1CCN(N2C(=O)c3ccc(CN4CC=C(c5c[nH]c6ncccc56)CC4)cc3C2=O)C(=O)N1 [GT-05181, 5-((4-(1H-pyrrolo[2,3-b]pyridin-3-yl)-3,6-dihydropyridin-1(2H)-yl)methyl)-2-(2,4-dioxotetrahydropyrimidin-1(2H)-yl)isoindoline-1,3-dione]	B (80%< substrate protein remaining % ≤100%)	B (80%< substrate protein remaining % ≤100%)	B (80%< substrate protein remaining % ≤100%)	B (80%< substrate protein remaining % ≤100%)	A (0% ≤ substrate protein remaining % ≤80%)	B (80%< substrate protein remaining % ≤100%)
